Tested on: E. coli ATCC 43890
Experiment: Survivability of E. coli ATCC 43890 in presence of gadobutrol (cfu count by plating decimal dilutions)
Format: cell-based, Escherichia coli
Experimental: A. (1) E. coli culture ATCC 43890 grown on LB broth during the night, (2) bacteria culture grown on LB broth and incubated with 0,2 M of gadobutrol in magnetic bioprinter for 24 hours, and (3) bacteria culture cultivated in paramagnetic substrate containing 0,2 M of gadobutrol in magnetic bioprinter for 24 hours; bacteria were sown in decimal dilution; diagram is showing concentrations calculated in three independent experiments.
The E. coli ATCC 43890 (cultured in different conditions) concentrations were estimated for analysis of survivability of bacteria in presence of gadobutrol. Primary culture has shown concentrations of 2.3×10^9, 2.1×10^9 and 1.9×10^8 cfu/ml for fresh night culture grown in LB broth during the night (1), for culture grown in LB broth during the night and then incubated with 0.2M gadobutrol in the bioprinter for next 24 hours (2), and culture grown under magnetic levitation in the paramagnetic nutrient medium (3) respectively (FIG. 4A). […] Moreover, the results have shown that the bacteria proliferated in the paramagnetic culture medium, that was observed due to the increase in concentration during cultivation: the initial bacteria (diluted in fresh paramagnetic medium) concentration was 2.3×10^7 cfu/ml ( 1/100 from the fresh night culture) and final concentration was 1.9×10^8 cfu/ml.

## O=C([O-])CN1CCN(CC(=O)[O-])CCN(C(CO)C(O)CO)CCN(CC(=O)[O-])CC1.[Gd+3] (stereo not drawn) [gadobutrol, [10-[2,3-dihydroxy-1-(hydroxymethyl)propyl]-1,4,7,10-tetraazacyclododecane-1,4,7-triaceto(3-)-N^1,N^4,N^7,N^10,O^1,O^4,O^7]gadolinium]
0.2M gadobutrol
  survivability of bacteria after incubation: bacteria saved their survivability
Culture grown in LB broth during the night, then incubated with 0.2M gadobutrol in the bioprinter for next 24 hours
  bacteria concentration: 2.1×10^9 cfu/ml
Culture grown under magnetic levitation in paramagnetic nutrient medium (0.2 M gadobutrol) for 24 hours, initial concentration 2.3×10^7 cfu/ml
  bacteria concentration: 1.9×10^8 cfu/ml

Source: US20210309961A1, “METHOD OF THREE-DIMENSIONAL MICROORGANISMS BIOFILMS FABRICATION” (VIVAX BIO, LLC, priority 2020, published 2021)
